From patent publication US6803186B2, “Compositions and methods for increasing amino acid absorption in mammals” (The IAMS Company, priority 2001, dated 2004)
Square brackets hold non-standard residues; d marks the D form. Peptide text beside a SMILES is read from it. Sar = CNCC(=O)O

Molecular target: T1, canine PepT1 (cPepT1) (Canis lupus familiaris, UniProt Q8WMX5)
T1 construct: endogenous in cells; host or cells: MDCK (Madin-Darby Canine Kidney) cells, whole-cell [3H]-GlySar uptake
T1 sequence (Q8WMX5 1-708): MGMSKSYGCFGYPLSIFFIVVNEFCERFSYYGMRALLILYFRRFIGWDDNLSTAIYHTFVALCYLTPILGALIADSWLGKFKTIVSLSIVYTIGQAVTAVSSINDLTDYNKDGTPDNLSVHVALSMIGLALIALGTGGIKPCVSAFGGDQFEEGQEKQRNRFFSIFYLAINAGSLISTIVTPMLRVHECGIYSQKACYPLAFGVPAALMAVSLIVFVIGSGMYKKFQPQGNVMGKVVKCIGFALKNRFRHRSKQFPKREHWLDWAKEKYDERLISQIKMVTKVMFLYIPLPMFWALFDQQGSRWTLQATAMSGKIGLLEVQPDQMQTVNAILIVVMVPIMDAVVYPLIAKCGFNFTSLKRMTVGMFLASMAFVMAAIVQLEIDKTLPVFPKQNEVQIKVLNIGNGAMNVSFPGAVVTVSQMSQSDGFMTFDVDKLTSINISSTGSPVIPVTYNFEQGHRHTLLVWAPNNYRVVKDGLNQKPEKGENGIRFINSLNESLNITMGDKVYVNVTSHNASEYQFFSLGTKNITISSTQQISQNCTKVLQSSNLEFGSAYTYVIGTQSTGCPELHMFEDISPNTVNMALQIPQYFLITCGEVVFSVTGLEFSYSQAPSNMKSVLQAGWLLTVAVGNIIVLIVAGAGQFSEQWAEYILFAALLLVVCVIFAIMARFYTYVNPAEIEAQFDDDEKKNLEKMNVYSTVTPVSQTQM
Assay: Characterization of GlySar uptake by MDCK cells (Km, pH gradient, time course)
Type: cell-based
Settings: for GlySar uptake in pH 6.0 buffer relative to pH 7.4 buffer: 100 μM GlySar
Experimental: Potential expression of PepT1 transport activity (H^+-dependent, dipeptide inhibitable, low-affinity dipeptide transport) by confluent MDCK cells was evaluated using whole-cell transport techniques and glycylsarcosine (GlySar) as a model dipeptide substrate. Cells were seeded at 60,000 cells/cm^2 into 24-well trays that had been coated with rat tail collagen or poly-L-lysine and cultured ([…]:5% CO2 at 37° C.) for 3 d in media consisting of Dulbecco's Modified Eagle Medium/10% fetal calf serum/1% antimicrobial antibacterial medium. Absorption (pmols/mg protein) of [^3H]-glycyl-L-sarcosine (GlySar, 6 mCi/mL, Moravek Biochemicals, Brea, Calif.) was determined using the 24-well cluster tray method and representative scintillation counting. Before transport, cells were incubated at 37° C. for 30 min in 25 mM Hepes/Tris (pH 7.5), 140 mM NaCl, 5.4 mM KCl, 1.8 mM CaCl2, 0.8 mM MgSO4, and 5 mM glucose (uptake buffer) to normalize intracellular amino acid and peptide pools. Transport was initiated by the addition of 0.25 mL of uptake buffer that contained 2.88 μm GlySar. After 30 min of uptake at 37° C., transport was terminated by rapid washing of cells with 4×2 mL 4° C. uptake buffer. Cellular protein was precipitated with 10% trichloroacetic acid and the supernatant recovered and counted to determine radioactivity (^3H) content. Cellular protein was then solubilized in 0.2 N NaOH and 0.2% SDS and quantified by the Lowry procedure, using bovine serum albumin as a standard. The amount of H^+-dependent GlySar absorbed was calculated as the difference between uptake in pH 6.0 and pH 7.5 uptake buffers. The amount of competitor substrate-inhibitable GlySar uptake was calculated as the quotient of GlySar uptake in the absence and presence of 10 mM competitor substrate (dipeptide or amino acid) multiplied by 100%.
To preliminarily characterize the kinetic parameters of peptide transport by MDCK cells, the uptake of GlySar in media that contained pH 6.0 and 0.00064, 0.0025, 0.010, 0.04, 0.160, 0.640, 2.56, or 10.2 mM of GlySar was measured (FIG. 6). […] Collectively, these characteristics of GlySar uptake are consistent with functional activity of PepT1 expressed by other species, as opposed to high-affinity, H^+-dependent uptake by PepT2 (μm Km).
Using the maximal uptake-stimulating culture parameters determined in Experiment 3, the effect of an extracellular-to-intracellular pH gradient on GlySar uptake was further evaluated to determine a pH level at which maximal GlySar uptake could be achieved, but which would replicate physiologic conditions (FIG. 10). As expected, the presence of a pH gradient stimulated (P<0.001) H^+-dependent GlySar uptake, in a quadratic (P<0.01) fashion. Uptake at pH 5.5 or 6.0 was about 2.7 times greater than that achieved at pH 7.5. […] Accordingly, the use pH 6.0 buffers for the characterization of H^+-dependent GlySar uptake was incorporated into the standard experimental conditions.
To determine the appropriate time period to measure initial (linear) rates of GlySar uptake, a by-minute time-course experiment was performed. […] GlySar uptake in pH 6.0 buffer at 3.75, 7.5, 15, 30, 60 and 120 min was about 2, 2.1, 2.25, 2.65, 2.79, and 2.62 times more (P<0.001), respectively, than uptake from pH 7.4 buffer. Because uptake was proportional to time of uptake through 1 h, future experiments were conducted using a 30-min time period.
To confirm that H^+-dependent GlySar uptake was saturable, and therefore mediated, the uptake of GlySar from pH 6.0 and 7.4 uptake buffers containing 0.025, 0.1, 0.4, 1.6, 6.4, or 25.6 mM GlySar was evaluated (FIG. 12). Uptake of GlySar was greatest (P<0.001) from the pH 6.0 buffers, at all concentrations.

## CN(CC(=O)O)C(=O)CN [GlySar, glycylsarcosine] (H-Gly-[Sar]-OH)
2.88 μM GlySar, LHM 2 days (FIG. 10)
  H+-dependent GlySar uptake at pH 5.5 or 6.0 relative to pH 7.5: about 2.7 times
3.75 min
  GlySar uptake in pH 6.0 buffer relative to pH 7.4 buffer: about 2 times
7.5 min
  GlySar uptake in pH 6.0 buffer relative to pH 7.4 buffer: ~2.1 times
15 min
  GlySar uptake in pH 6.0 buffer relative to pH 7.4 buffer: ~2.25 times
30 min
  GlySar uptake in pH 6.0 buffer relative to pH 7.4 buffer: ~2.65 times
60 min
  GlySar uptake in pH 6.0 buffer relative to pH 7.4 buffer: ~2.79 times
120 min
  GlySar uptake in pH 6.0 buffer relative to pH 7.4 buffer: ~2.62 times
Cells grown on poly-L-lysine
  GlySar uptake at extracellular pH 6.0 relative to pH 7.5 medium: 1.7 fold
Cells plated on collagen
  GlySar uptake at extracellular pH 6.0 relative to pH 7.5 medium: 2.3 fold
